Source: ChEMBL document CHEMBL3994649, “Piceatannol, a natural trans-stilbene compound, inhibits human glyoxalase I” (Bioorg Med Chem Lett, 2017)
Calls of active or inactive are those of the source. No cut-off for these calls is given here.

Columns and labels:
Lactoylglutathione lyase [1] = biological target: T1, Lactoylglutathione lyase (Homo sapiens, UniProt Q04760); test: Inhibition of human N-terminal His6-tagged GLO1 expressed in baculovirus infected sf21 cells assessed as reduction in S-D-lactoylglutathione formation at 100 uM measured for 5 mins in presence of glutathione by spectrophotometric method
Target sequence in this assay (Q04760 2-184 limits assumed): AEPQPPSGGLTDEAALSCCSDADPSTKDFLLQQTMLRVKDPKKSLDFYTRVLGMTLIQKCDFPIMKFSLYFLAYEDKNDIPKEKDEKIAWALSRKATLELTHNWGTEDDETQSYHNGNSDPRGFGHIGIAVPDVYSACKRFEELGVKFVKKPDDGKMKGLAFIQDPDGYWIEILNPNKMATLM

NCI-H522 [2] = test: Antiproliferative activity against human NCI-H522 cells after 24 hrs by WST8 assay; assay type: functional, cell-based; conditions: NCI-H522, 24 h
NCI-H522 [3] = test: Antiproliferative activity against human NCI-H522 cells overexpressing human GLO1 at 10 to 30 uM after 72 hrs by WST8 assay; assay type: functional, cell-based
NCI-H522 [4] = test: Antiproliferative activity against human NCI-H522 cells after 72 hrs by WST8 assay; assay type: functional, cell-based; conditions: NCI-H522, 72 h
NCI-H460 = test: Antiproliferative activity against human NCI-H460 cells at 50 uM after 24 to 72 hrs by WST8 assay; assay type: functional, cell-based
NCI-H522 [5] = test: Antiproliferative activity against human NCI-H522 cells after 48 hrs by WST8 assay; assay type: functional, cell-based; conditions: NCI-H522, 48 h
Lactoylglutathione lyase [6] = biological target: T1, Lactoylglutathione lyase; test: Potency index, ratio of baicalein IC50 to compound IC50 for human N-terminal His6-tagged GLO1 expressed in baculovirus infected sf21 cells
Target sequence in this assay (Q04760 2-184 limits assumed): as above

Lactoylglutathione lyase [7] = biological target: T1, Lactoylglutathione lyase; test: Inhibition of human N-terminal His6-tagged GLO1 expressed in baculovirus infected sf21 cells assessed as reduction in S-D-lactoylglutathione formation measured for 5 mins in presence of glutathione by spectrophotometric method
Target sequence in this assay (Q04760 whole entry): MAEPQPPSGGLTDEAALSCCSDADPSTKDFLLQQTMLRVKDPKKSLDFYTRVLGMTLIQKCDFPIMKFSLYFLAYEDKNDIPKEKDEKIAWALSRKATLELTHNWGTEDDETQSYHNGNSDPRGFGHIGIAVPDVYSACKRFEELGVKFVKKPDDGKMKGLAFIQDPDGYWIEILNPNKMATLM

## COc1cc(/C=C/c2ccc(OC)c(OC)c2)cc(OC)c1
Lactoylglutathione lyase [1]
  inhibition: Active

## Oc1cc(O)cc(/C=C/c2ccc(O)c(O)c2)c1 [PICEATANNOL]
NCI-H522 [2]
  EC50: 53 µM
NCI-H522 [3]
  Activity: inactive
NCI-H522 [4]
  EC50: 17 µM
NCI-H460
  Activity: inactive
Lactoylglutathione lyase [1]
  inhibition: Active
NCI-H522 [5]
  EC50: 23 µM
Lactoylglutathione lyase [6]
  Ratio IC50: 14
Lactoylglutathione lyase [7]
  IC50: 0.76 µM
